From article PMC3661587, “Estrone-3-Sulphate, a Potential Novel Ligand for Targeting Breast Cancers” (PLoS ONE, 2013)
Like-named read-outs stand apart in the source and are kept apart here.

Settings: mouse, in vivo
Method: Solid phase extraction (SPE) and HPLC analysis of plasma were performed as previously described with minor modifications, [23]. SPE was performed using Sep-Pak C18 columns (Waters, Mississauga, ON). The column was activated using methanol, followed by water. 100 µL of plasma was then loaded on to the activated column. This was followed by successive washing steps with water and hexane. The analyte was eluted from the column using methanol and then dried under a stream of N2. The sample was reconstituted in DMSO:Methanol 1∶1 v/v prior to HPLC analysis. […] The radioactivity in each eluate was determined by liquid scintillation counting. […] The methanol eluates were used for HPLC analysis.
Separation was performed using a Waters C18 reversed-phase HPLC column (XTerra RP-C18, 5 µm, 4.6×250 mm I.D.) Analytes were eluted using an isocratic-gradient of 20 mM ammonium sulphate buffer (solvent A) and methanol (solvent B). The mobile phase consisted of solvent A/solvent B; 60/40% for 0–5 min, followed by a linear gradient of 60/40% to 25/75% for 5–45 and 25/75% for 45–50 min at a flow rate of 1.0 mL/min and UV detection at 280 nm. The HPLC eluate from the UV detector was collected every minute for over 50 min in eppendorf tubes and radioactivity in each sample was determined.

| Compound | % of total radioactivity in plasma (2 h) | % of total radioactivity in plasma (6 h) | % of total radioactivity in plasma (48 h) |
| --- | --- | --- | --- |
| C[C@]12CC[C@@H]3c4ccc(O)cc4CC[C@H]3[C@@H]1CC[C@@H]2O [Estradiol, estradiol] | 2.2±1.23% | 3.2±0.2% | 3.2±0.45% |
| C[C@]12CC[C@@H]3c4ccc(O)cc4CC[C@H]3[C@@H]1CCC2=O [Estrone, estrone] | 1.02±0.24% | 1.7±0.8% |  |
